Experimental data published in the NIST ThermoML archive (doi:10.1016/j.fluid.2010.07.015).
± gives the expanded uncertainty stated by the source.

Assay: wn = mass fraction of the nth substance listed
Details: 101 kPa, Radial Heat Flow Method

[Sn] [tin] + [Al]
thermal conductivity [W/m/K], w2 = 0
Details | 373 K | 393 K | 413 K | 433 K | 453 K | 473 K | 504 K
Crystal | 67.2 ± 28 | 65.2 ± 25 | 63.3 ± 26 | 61.7 ± 22 | 62.5 ± 23 | 60.6 ± 21 | –
Liquid | – | – | – | – | – | – | 67.2

[Al] [aluminum] + [Sn]
Details | thermal conductivity [W/m/K]
323 K, Crystal, w1 = 0.022 | 98.8 ± 22
323 K, Crystal, w1 = 0.25 | 139.3 ± 33
323 K, Crystal, w1 = 0.5 | 191.7 ± 43
323 K, Crystal, w1 = 0.75 | 235.5 ± 52
343 K, Crystal, w1 = 0.022 | 97.4 ± 23
343 K, Crystal, w1 = 0.25 | 136.8 ± 30
343 K, Crystal, w1 = 0.5 | 185.3 ± 44
343 K, Crystal, w1 = 0.75 | 233.7 ± 52
363 K, Crystal, w1 = 0.005 | 83.5 ± 22
363 K, Crystal, w1 = 0.022 | 93.3 ± 22
363 K, Crystal, w1 = 0.25 | 135.9 ± 31
363 K, Crystal, w1 = 0.5 | 180.6 ± 42
363 K, Crystal, w1 = 0.75 | 228.2 ± 52
383 K, Crystal, w1 = 0.005 | 79.5 ± 19
383 K, Crystal, w1 = 0.022 | 92.7 ± 20
383 K, Crystal, w1 = 0.25 | 132.3 ± 30
383 K, Crystal, w1 = 0.5 | 177 ± 40
383 K, Crystal, w1 = 0.75 | 224.4 ± 51
403 K, Crystal, w1 = 0.005 | 78.7 ± 17
403 K, Crystal, w1 = 0.022 | 92.9 ± 21
403 K, Crystal, w1 = 0.25 | 130.5 ± 31
403 K, Crystal, w1 = 0.5 | 174.6 ± 40
403 K, Crystal, w1 = 0.75 | 220.9 ± 49
423 K, Crystal, w1 = 0.005 | 78.5 ± 17
423 K, Crystal, w1 = 0.022 | 90.5 ± 21
423 K, Crystal, w1 = 0.25 | 125.4 ± 30
423 K, Crystal, w1 = 0.5 | 170.6 ± 40
423 K, Crystal, w1 = 0.75 | 217.6 ± 50
423 K, Crystal, w1 = 1 | 302.9 ± 70
443 K, Crystal, w1 = 0.005 | 77.8 ± 18
443 K, Crystal, w1 = 0.022 | 88.2 ± 21
443 K, Crystal, w1 = 0.25 | 123.9 ± 30
443 K, Crystal, w1 = 0.5 | 166.6 ± 41
443 K, Crystal, w1 = 0.75 | 211.4 ± 60
463 K, Crystal, w1 = 0.005 | 76.3 ± 17
463 K, Crystal, w1 = 0.022 | 86.3 ± 22
463 K, Crystal, w1 = 0.25 | 118 ± 29
463 K, Crystal, w1 = 0.5 | 160.1 ± 44
463 K, Crystal, w1 = 0.75 | 207 ± 48
473 K, Crystal, w1 = 1 | 288.3 ± 64
483 K, Crystal, w1 = 0.005 | 75.8 ± 22
483 K, Crystal, w1 = 0.022 | 82.7 ± 24
483 K, Crystal, w1 = 0.25 | 116.5 ± 29
483 K, Crystal, w1 = 0.5 | 152.6 ± 52
483 K, Crystal, w1 = 0.75 | 196.2 ± 69
493 K, Crystal, w1 = 0.005 | 69.7
493 K, Crystal, w1 = 0.022 | 80.3 ± 26
493 K, Crystal, w1 = 0.25 | 112.3 ± 53
493 K, Crystal, w1 = 0.5 | 142 ± 50
493 K, Crystal, w1 = 0.75 | 188.5
501 K, Liquid, w1 = 0.005 | 73.8
523 K, Crystal, w1 = 1 | 278.6 ± 62
573 K, Crystal, w1 = 1 | 261.8 ± 66
623 K, Crystal, w1 = 1 | 255.7 ± 80
673 K, Crystal, w1 = 1 | 244.8 ± 84
723 K, Crystal, w1 = 1 | 241.4 ± 78
773 K, Crystal, w1 = 1 | 238.6 ± 64
823 K, Crystal, w1 = 1 | 227.4 ± 68
873 K, Crystal, w1 = 1 | 226.1 ± 64
923 K, Crystal, w1 = 1 | 208.8 ± 69
933 K, Liquid, w1 = 1 | 235 ± 78
